Where two headings read alike, the source gives them in different places.
What was measured:
CCRF-CEM cell line [1] = assay: CCRF-CEM proliferation, compound alone (nonspecific toxicity); type: cell-based, human; details: compound 10 µM alone, 72 h
Procedure: (§1) The dCK cellular assay was set up to assess the ability to inhibit dCK activity in a cellular model. The model was developed with a T-cell acute lymphoblastic leukemia cell line (CCRF-CEM), because of its high dependence on the SP, thus on dCK activity. Cellular assays were performed to assess the inhibition of cell proliferation under two conditions: (i) in the presence of the compound alone to determine the nonspecific effect on cells, independent of dCK (nonspecific toxicity) and (ii) in the presence of an inhibitor of the DNP to determine the ability of compounds to inhibit dCK and decrease tumor proliferation (activity on dCK). The inhibitor of the DNP chosen for the experiments was thymidine (dT), a physiological inhibitor of ribonucleotide reductase which arrests cell proliferation in phase S. The dTTP produced via thymidine kinase from dT acts as a RNR inhibitor by an allosteric regulation of the R1 subunit. The addition of the nucleoside deoxycytidine (dC) in the medium allows the rescue of cell proliferation by passing only through the salvage pathway, mediated by dCK. dC needs to be added exogenously to mimic physiological concentrations because it is not present in the cell culture medium, on the contrary to mouse model, in which it is naturally present in the serum. Therefore, cell proliferation under these conditions (+dT +dC) is dCK dependent and it is possible to determine the IC50 of dCK inhibitors on the inhibition of cell proliferation. Results are expressed as % cell proliferation relative to the control with DMSO.
(§2) The amount of reduced dye formed by metabolically active cells was quantified by its fluorescence measured at 560 nm (excitation) and 590 nm (emission) in a microplate reader (CLARIOstar, BMG Labtech). A blank well without cells was used as a background control. Each experiment was performed at least three times (with technical triplicates) and data are presented as the mean ± SD.

dCK-C3S-S74E [2] = molecular target: T1, dCK-C3S-S74E (Homo sapiens, UniProt P27707, form not given/S74E); assay: Enzymatic assay (PK/LDH coupled), dC phosphorylation by dCK in the presence of UTP; type: biochemical; details: presence of UTP
T1 sequence (P27707 whole entry S74E, form open): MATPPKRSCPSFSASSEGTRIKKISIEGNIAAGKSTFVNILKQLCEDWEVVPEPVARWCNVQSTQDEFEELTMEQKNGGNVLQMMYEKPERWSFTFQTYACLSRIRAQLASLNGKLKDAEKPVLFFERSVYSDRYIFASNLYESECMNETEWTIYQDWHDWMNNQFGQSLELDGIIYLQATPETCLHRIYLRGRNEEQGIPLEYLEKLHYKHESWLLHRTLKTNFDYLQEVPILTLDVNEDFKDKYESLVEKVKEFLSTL
Procedure: (§3) For enzymatic assays, cells were re-suspended in 20 mM TRIS, pH 8 500 mM NaCl, 0.1% BRIJ-35 and 5% glycerol buffer and one EDTA free anti-protease tablet was added (Roche). After sonication and centrifugation (30,000 × g), the supernatant was loaded on a 5 ml HisTrap FF column (GE healthcare) pre-equilibrated with 20 mM TRIS, pH 8, 500 mM NaCl, 0.01% BRIJ-35 and 5% glycerol buffer. The protein was then eluted by the same buffer containing 250 mM imidazole after a wash containing 25 mM imidazole. The eluted fraction was applied on a HiPrep 26/10 desalting column (GE healthcare) pre-equilibrated with 20 mM TRIS, pH 8, 500 mM NaCl, 5% glycerol and 0.01% BRIJ-35 buffer. Finally, protein in a 20% glycerol buffer was flash frozen in liquid nitrogen and stored at −80 °C.
(§4) Kinetic analyses were performed using a spectrophotometric continuous enzymatic-coupled assay using pyruvate kinase (PK) and lactate dehydrogenase (LDH). […] UTP is the physiological dCK-phosphate donor[46] and it was used to determine activation versus inhibition behavior. ATP was used to calculate IC50 values, as it allows the analysis of a dose response curve. The PK/LDH coupled assay is based on the conversion of phosphoenolpyruvate (PEP) and UDP/ADP to pyruvate and UTP/ATP by PK and the subsequent conversion of pyruvate to lactate by LDH. The latter step requires NADH, which is oxidized to NAD^+. NADH is fluorescent (excitation at 337 nm and emission at 460 nm), but not NAD^+. Thus, the measurement of fluorescent decrease at 460 nm is a measure of kinase activity. dCK experiments were performed in a buffer containing 50 mM HEPES, pH 7.5, 5 mM MgCl2, 1 mM DTT, and 100 mM KCl. Buffer was supplemented with PK (0.01 U/µl), LDH (0.02 U/µl), PEP (1 mM), NADH (300 µM) and compounds at varying concentrations. For UTP assays, protein concentration was 2 μM, substrate 200 µM (dC), and UTP 1 mM. For ATP assays, protein concentration was 100 nM (and 50 nM when indicated), substrate 100 µM (dC), and ATP 1 mM. All measurements were performed on a microplate reader Pherastar FS (BMG Labtech). All assays were performed in triplicate and each experiment was performed at least twice. The data are presented as mean ± SD. The results were plotted as kinetics and the velocity was determined for each condition as the slope of the linear range of the curve. For each compound concentration, the velocity of the reaction (according to V = d[P]/dt) was normalized with respect to the drug free control and velocity ratios were compared. IC50 values corresponding to enzymatic inhibition in ATP were calculated by nonlinear regression curves using GraphPad Prism software 9.4.0.

dCK-C3S-S74E [3] = molecular target: T1, dCK-C3S-S74E; assay: Enzymatic assay (PK/LDH coupled), dC phosphorylation by dCK in the presence of ATP; type: biochemical; details: read-out: ENZYMATIC ASSAY IC50; presence of ATP, [dCK] = 100 nM
T1 sequence (P27707 whole entry S74E, form open): as above
Procedure: as §3
(§5) Kinetic analyses were performed using a spectrophotometric continuous enzymatic-coupled assay using pyruvate kinase (PK) and lactate dehydrogenase (LDH). Analysis of the effect of compounds on dCK-C3S-S74E activity was performed using dC as substrate and UTP/ATP as phosphate donors. UTP is the physiological dCK-phosphate donor[46] and it was used to determine activation versus inhibition behavior. ATP was used to calculate IC50 values, as it allows the analysis of a dose response curve. The PK/LDH coupled assay is based on the conversion of phosphoenolpyruvate (PEP) and UDP/ADP to pyruvate and UTP/ATP by PK and the subsequent conversion of pyruvate to lactate by LDH. The latter step requires NADH, which is oxidized to NAD^+. NADH is fluorescent (excitation at 337 nm and emission at 460 nm), but not NAD^+. Thus, the measurement of fluorescent decrease at 460 nm is a measure of kinase activity. dCK experiments were performed in a buffer containing 50 mM HEPES, pH 7.5, 5 mM MgCl2, 1 mM DTT, and 100 mM KCl. Buffer was supplemented with PK (0.01 U/µl), LDH (0.02 U/µl), PEP (1 mM), NADH (300 µM) and compounds at varying concentrations. For UTP assays, protein concentration was 2 μM, substrate 200 µM (dC), and UTP 1 mM. For ATP assays, protein concentration was 100 nM (and 50 nM when indicated), substrate 100 µM (dC), and ATP 1 mM. All measurements were performed on a microplate reader Pherastar FS (BMG Labtech). All assays were performed in triplicate and each experiment was performed at least twice. The data are presented as mean ± SD. The results were plotted as kinetics and the velocity was determined for each condition as the slope of the linear range of the curve. For each compound concentration, the velocity of the reaction (according to V = d[P]/dt) was normalized with respect to the drug free control and velocity ratios were compared. IC50 values corresponding to enzymatic inhibition in ATP were calculated by nonlinear regression curves using GraphPad Prism software 9.4.0.

CCRF-CEM cell line [4] = assay: dCK cellular assay: CCRF-CEM proliferation in the presence of dT and dC; type: cell-based, human; details: Homo sapiens
Procedure: as §1, §2

dCK-C3S-S74E [5] = assay: Enzymatic assay (PK/LDH coupled), dC phosphorylation by dCK in the presence of UTP; type: biochemical, human; details: presence of UTP
Procedure: as §3, §4

dCK-C3S-S74E [6] = assay: Enzymatic assay (PK/LDH coupled), dC phosphorylation by dCK in the presence of ATP; type: biochemical, human; details: presence of ATP, [dCK] = 50 nM (footnote A); read-out: ENZYMATIC ASSAY IC50
Procedure: as §3, §5

dCK-C3S-S74E [7] = assay: Thermal shift assay (TSA); details: for ΔTm (º) (TSA): Figure 2a, mean; for THERMAL SHIFT ASSAY +Tm (°): mean ± SD
[8] = Figure 2a, CCRF-CEM cell line, mean, read-out: IC50 (nM) (Cell Prolif)

Cc1ccc(NC(=O)c2ccc(CN3CCN(C)CC3)cc2)cc1Nc1nc(-c2cccnc2)cs1 [Masitinib, masitinib, reference compound]
Cell proliferation of the CCRF-CEM cell line Mean (% prolif) (CCRF-CEM cell line [1]): 87.5%

CCCN(c1nc(-c2nccc(N)n2)cs1)c1cc(-c2ccc(OCC(=O)N3CCN(C)CC3)cc2)ccc1C [OR0597]
ENZYMATIC ASSAY (Activation/Inhibition) (dCK-C3S-S74E [2]): I | IC50 (dCK-C3S-S74E [3]): 349 ± 89 nM | IC50 (CCRF-CEM cell line [4]; read-out: dCK CELLULAR ASSAY IC50 (nM), CCRF-CEM, 200 µM dT and 1 µM dC, read-out: dCK […] ASSAY IC50): 220 ± 127 nM

CCCN(c1nc(-c2nc(N)cc(N)n2)cs1)c1cc(-c2ccc(C(=O)N3CCN(C)CC3)nc2)ccc1C [OR0612]
ENZYMATIC ASSAY (Activation/Inhibition) (dCK-C3S-S74E [5]): I | IC50 (dCK-C3S-S74E [6]): 195 ± 16 nM | IC50 (CCRF-CEM cell line [4]; [8]): 1000 nM | ΔTm (º) (TSA) (dCK-C3S-S74E [7]): 16.58 º | THERMAL SHIFT ASSAY +Tm (°) (dCK-C3S-S74E [7]): 16.6 ± 0.8 °

Cc1ccc(-c2ccc(S(=O)(=O)N3CCN(C)CC3)cc2)cc1Nc1nc(-c2nc(N)cc(N)n2)cs1 [OR0614]
ENZYMATIC ASSAY (Activation/Inhibition) (dCK-C3S-S74E [5]): A/I | IC50 (dCK-C3S-S74E [6]): 233 ± 83 nM | IC50 (CCRF-CEM cell line [4]; [8]): 10000 nM | ΔTm (º) (TSA) (dCK-C3S-S74E [7]): 18.1 º | THERMAL SHIFT ASSAY +Tm (°) (dCK-C3S-S74E [7]): 18.1 ± 0.8 °

CCCN(c1nc(-c2nc(N)cc(N)n2)cs1)c1cc(-c2ccc(S(N)(=O)=O)cc2)ccc1C [OR0615]
ENZYMATIC ASSAY (Activation/Inhibition) (dCK-C3S-S74E [5]): I | IC50 (dCK-C3S-S74E [6]): 88 ± 68 nM | IC50 (CCRF-CEM cell line [4]; [8]): 411 nM | ΔTm (º) (TSA) (dCK-C3S-S74E [7]): 17.5 º | THERMAL SHIFT ASSAY +Tm (°) (dCK-C3S-S74E [7]): 17.5 ± 0.7 °

— paper PMC10227015, “From a drug repositioning to a structure-based drug design approach to tackle acute lymphoblastic leukemia” (Nature Communications, 2023)
